Assays:
Test in all cases: UAG suppression of SAMP1 reporter in H. volcanii, immunoblot and LC-MS/MS of the product
Format in all cases: cell-based
[1] = biological target: T1, HMET1 PylRS2 (Candidatus Methanohalarchaeum thermophilum, UniProt A0A1Q6DTA0); details: 1 mM BocK in medium, cognate tRNAPyl2, 42 °C
T1 construct: gene BTN85_0018; deltaPylSn type (catalytic domain only), N-terminal 6xHis tag, expressed in Haloferax volcanii
T1 sequence (A0A1Q6DTA0 1-273): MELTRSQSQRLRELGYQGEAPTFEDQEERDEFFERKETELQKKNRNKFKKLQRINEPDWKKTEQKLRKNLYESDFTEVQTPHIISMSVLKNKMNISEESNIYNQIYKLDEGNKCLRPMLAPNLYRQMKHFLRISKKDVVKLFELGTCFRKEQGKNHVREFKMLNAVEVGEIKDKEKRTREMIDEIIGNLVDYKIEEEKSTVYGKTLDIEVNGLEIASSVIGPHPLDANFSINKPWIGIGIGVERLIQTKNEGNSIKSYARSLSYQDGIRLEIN

[2] = biological target: T2, HMET1 PylRS1 (Candidatus Methanohalarchaeum thermophilum, UniProt A0A1Q6DXK2); details: 1 mM BocK in medium, cognate tRNAPyl1, 42 °C
T2 construct: gene BTN85_1602; deltaPylSn type (catalytic domain only), N-terminal 6xHis tag, expressed in Haloferax volcanii
T2 sequence (A0A1Q6DXK2 1-273): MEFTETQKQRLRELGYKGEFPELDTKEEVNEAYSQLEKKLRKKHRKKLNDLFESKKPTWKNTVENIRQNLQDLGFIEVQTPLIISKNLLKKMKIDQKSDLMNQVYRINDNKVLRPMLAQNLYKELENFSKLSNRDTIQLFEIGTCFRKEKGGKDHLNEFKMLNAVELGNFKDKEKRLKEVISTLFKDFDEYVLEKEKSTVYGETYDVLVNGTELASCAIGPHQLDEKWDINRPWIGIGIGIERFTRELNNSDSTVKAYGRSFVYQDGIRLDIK

[3] = biological target: T3, HMET1 PylRS1 (Candidatus Methanohalarchaeum thermophilum, UniProt A0A1Q6DXK2, N163S/V165I); details: 1 mM 3-I-Phe in medium, tRNAPyl1, 42 °C; printed as PylRS1-SI
T3 construct: gene BTN85_1602; deltaPylSn type (catalytic domain only), N-terminal 6xHis tag, expressed in Haloferax volcanii
T3 sequence (A0A1Q6DXK2 entry or part of it N163S/V165I): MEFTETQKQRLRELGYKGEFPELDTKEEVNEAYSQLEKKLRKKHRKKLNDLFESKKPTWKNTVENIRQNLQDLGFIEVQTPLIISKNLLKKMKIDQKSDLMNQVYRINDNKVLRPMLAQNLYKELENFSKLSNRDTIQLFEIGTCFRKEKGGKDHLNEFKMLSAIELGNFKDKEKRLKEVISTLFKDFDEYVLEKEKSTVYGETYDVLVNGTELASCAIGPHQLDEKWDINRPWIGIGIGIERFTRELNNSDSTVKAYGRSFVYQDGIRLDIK

| SMILES | UAG suppression of SAMP1 reporter in H. volcanii, immunoblot and LC-MS/MS of the [1] | UAG suppression of SAMP1 reporter in H. volcanii, immunoblot and LC-MS/MS of the [2] | UAG suppression of SAMP1 reporter in H. volcanii, immunoblot and LC-MS/MS of the [3] |
| --- | --- | --- | --- |
| CC(C)(C)OC(=O)NCCCC[C@H](N)C(=O)O [BocK] | native HMET1 PylRS/tRNA^Pyl pairs incorporate BocK into proteins via genetic code expansion in H. volcanii | both HMET1 PylRS/tRNA^Pyl pairs facilitated efficient amber suppression |  |
| N[C@@H](Cc1cccc(I)c1)C(=O)O [3-I-Phe] |  |  | The PylRS1-SI/tRNA^Pyl1 pair exhibited strong amber suppression in a 3-I-Phe-dependent manner |

— PMC9071458, “The tRNA discriminator base defines the mutual orthogonality of two distinct pyrrolysyl-tRNA synthetase/tRNA^Pyl pairs in the same organism” (Nucleic Acids Research, 2022)
